Assay results taken from ChEMBL document CHEMBL3885861, “Open TG-GATES”.

Organism: Rattus norvegicus
Experiment: Open TG-GATES - Regimen: Daily Repeat
Type: toxicity, organism-based, Sprague-Dawley
Design: regimen Daily Repeat, gender Male, age 6 weeks
Settings: in vivo, po, route gavage; for APTT / Bas / Eos / Fbg / Hb / Ht / Lym / MCH / MCHC / MCV / Mono / Neu / PT / Plat / RBC / Ret / WBC: tissue Blood; for KIDNEY_L / KIDNEY_R / KIDNEY_TOTAL: tissue Kidney; for LIVER: tissue Liver; for A/G / ALP / ALT / AST / BUN / CRE / Ca / Cl / DBIL / GLC / IP / K / LDH / Na / PL / RALB / TBIL / TC / TG / TP / gamma-GTP: tissue Plasma
[1] = 100 mg/kg, 72 h, dose level Middle, time 3 day
[2] = 100 mg/kg, […], dose level Middle, time 7 day
[3] = 100 mg/kg, […], dose level Middle, time 14 day
[4] = 100 mg/kg, […], dose level Middle, time 28 day
[5] = 200 mg/kg, 72 h, dose level High, time 3 day
[6] = 200 mg/kg, […], dose level High, time 7 day
[7] = 200 mg/kg, […], dose level High, time 14 day
[8] = 200 mg/kg, […], dose level High, time 28 day

NNC(=O)c1ccncc1 [ISONIAZID]
TERMINAL_BW [1]: 217.2 g
APTT [1]: 15.8 s
Bas [1]: 0%
Eos [1]: 0.6%
Fbg [1]: 245.2 mg/dL
Hb [1]: 13.4 g/dL
Ht [1]: 40.2%
Lym [1]: 82.2%
MCH [1]: 21.8 pg
MCHC [1]: 33.4%
MCV [1]: 65.2 fL
Mono [1]: 5%
Neu [1]: 12.2%
PT [1]: 12.1 s
Plat [1]: 115.4 x10_4/uL
RBC [1]: 616.6 x10_4/ul
Ret [1]: 7.3%
WBC [1]: 87 x10_2/uL
KIDNEY_L [1]: 1.1 g
KIDNEY_R [1]: 1.1 g
KIDNEY_TOTAL [1]: 2.1 g
LIVER [1]: 11.5 g
A/G [1]: 1.7
ALP [1]: 962 IU/L
ALT [1]: 18.6 IU/L
AST [1]: 55 IU/L
BUN [1]: 17.2 mg/dL
CRE [1]: 0.5 mg/dL
Ca [1]: 10.9 mg/dL
Cl [1]: 103.4 meq/L
DBIL [1]: 0.014 mg/dL
GLC [1]: 204.2 mg/dL
IP [1]: 8.6 mg/dL
K [1]: 5 meq/L
LDH [1]: 93.4 IU/L
Na [1]: 140.6 meq/L
PL [1]: 158.6 mg/dL
RALB [1]: 3.7 g/dL
TBIL [1]: 0.3 mg/dL
TC [1]: 81.4 mg/dL
TG [1]: 104.6 mg/dL
TP [1]: 6 g/dL
gamma-GTP [1]: 1 IU/L
TERMINAL_BW [2]: 244.8 g
TERMINAL_BW [3]: 283.5 g
TERMINAL_BW [4]: 361.7 g
APTT [2]: 16.2 s
Bas [2]: 0%
Eos [2]: 1%
Fbg [2]: 234.8 mg/dL
Hb [2]: 13.6 g/dL
Ht [2]: 40.6%
Lym [2]: 84.2%
MCH [2]: 21.2 pg
MCHC [2]: 33.5%
MCV [2]: 63.2 fL
Mono [2]: 6.6%
Neu [2]: 8.8%
PT [2]: 12.2 s
Plat [2]: 121.4 x10_4/uL
RBC [2]: 641.8 x10_4/ul
Ret [2]: 6.3%
WBC [2]: 150.1 x10_2/uL
APTT [3]: 15.7 s
Bas [3]: 0%
Eos [3]: 0.8%
Fbg [3]: 221.4 mg/dL
Hb [3]: 13.9 g/dL
Ht [3]: 41.4%
Lym [3]: 83.4%
MCH [3]: 19.7 pg
MCHC [3]: 33.6%
MCV [3]: 58.6 fL
Mono [3]: 4.6%
Neu [3]: 10.8%
PT [3]: 12.1 s
Plat [3]: 125.3 x10_4/uL
RBC [3]: 706.6 x10_4/ul
Ret [3]: 5.1%
WBC [3]: 172.6 x10_2/uL
APTT [4]: 16.3 s
Bas [4]: 0%
Eos [4]: 1.4%
Fbg [4]: 227.4 mg/dL
Hb [4]: 14.4 g/dL
Ht [4]: 42.8%
Lym [4]: 80.6%
MCH [4]: 18.6 pg
MCHC [4]: 33.8%
MCV [4]: 55 fL
Mono [4]: 3.6%
Neu [4]: 14.4%
PT [4]: 12.2 s
Plat [4]: 119.2 x10_4/uL
RBC [4]: 780 x10_4/ul
Ret [4]: 2.9%
WBC [4]: 151.6 x10_2/uL
KIDNEY_L [2]: 1.1 g
KIDNEY_R [2]: 1.1 g
KIDNEY_TOTAL [2]: 2.2 g
KIDNEY_L [3]: 1.2 g
KIDNEY_R [3]: 1.2 g
KIDNEY_TOTAL [3]: 2.5 g
KIDNEY_L [4]: 1.4 g
KIDNEY_R [4]: 1.5 g
KIDNEY_TOTAL [4]: 2.9 g
LIVER [2]: 11.5 g
LIVER [3]: 12.7 g
LIVER [4]: 15.3 g
A/G [2]: 1.6
ALP [2]: 823.2 IU/L
ALT [2]: 15.4 IU/L
AST [2]: 56.6 IU/L
BUN [2]: 18.4 mg/dL
CRE [2]: 0.5 mg/dL
Ca [2]: 10.3 mg/dL
Cl [2]: 105.4 meq/L
DBIL [2]: 0.052 mg/dL
GLC [2]: 215.4 mg/dL
IP [2]: 8.4 mg/dL
K [2]: 4.9 meq/L
LDH [2]: 92.2 IU/L
Na [2]: 139.4 meq/L
PL [2]: 134.8 mg/dL
RALB [2]: 3.6 g/dL
TBIL [2]: 0.3 mg/dL
TC [2]: 70.4 mg/dL
TG [2]: 91.6 mg/dL
TP [2]: 5.9 g/dL
gamma-GTP [2]: 1 IU/L
A/G [3]: 1.7
ALP [3]: 722 IU/L
ALT [3]: 11.8 IU/L
AST [3]: 53.4 IU/L
BUN [3]: 19.6 mg/dL
CRE [3]: 0.5 mg/dL
Ca [3]: 10.4 mg/dL
Cl [3]: 106 meq/L
DBIL [3]: 0.04 mg/dL
GLC [3]: 217.2 mg/dL
IP [3]: 8 mg/dL
K [3]: 5.1 meq/L
LDH [3]: 92 IU/L
Na [3]: 138.6 meq/L
PL [3]: 140.4 mg/dL
RALB [3]: 3.8 g/dL
TBIL [3]: 0.4 mg/dL
TC [3]: 70 mg/dL
TG [3]: 94.8 mg/dL
TP [3]: 6.1 g/dL
gamma-GTP [3]: 1 IU/L
A/G [4]: 1.4
ALP [4]: 589.6 IU/L
ALT [4]: 11.6 IU/L
AST [4]: 55.2 IU/L
BUN [4]: 20.2 mg/dL
CRE [4]: 0.5 mg/dL
Ca [4]: 10 mg/dL
Cl [4]: 104.6 meq/L
DBIL [4]: 0.024 mg/dL
GLC [4]: 222.6 mg/dL
IP [4]: 6.9 mg/dL
K [4]: 4.5 meq/L
LDH [4]: 75.8 IU/L
Na [4]: 140.6 meq/L
PL [4]: 141.8 mg/dL
RALB [4]: 3.6 g/dL
TBIL [4]: 0.2 mg/dL
TC [4]: 68.6 mg/dL
TG [4]: 105.4 mg/dL
TP [4]: 6.2 g/dL
gamma-GTP [4]: 1 IU/L
TERMINAL_BW [5]: 211.3 g
APTT [5]: 15.3 s
Bas [5]: 0%
Eos [5]: 0.8%
Fbg [5]: 228.6 mg/dL
Hb [5]: 13.5 g/dL
Ht [5]: 40.4%
Lym [5]: 78.4%
MCH [5]: 21.5 pg
MCHC [5]: 33.5%
MCV [5]: 64.1 fL
Mono [5]: 4.6%
Neu [5]: 16%
PT [5]: 12 s
Plat [5]: 140.8 x10_4/uL
RBC [5]: 629.8 x10_4/ul
Ret [5]: 6.5%
WBC [5]: 96.9 x10_2/uL
KIDNEY_L [5]: 1 g
KIDNEY_R [5]: 1.1 g
KIDNEY_TOTAL [5]: 2.1 g
LIVER [5]: 10.5 g
A/G [5]: 1.9
ALP [5]: 722.8 IU/L
ALT [5]: 10.6 IU/L
AST [5]: 44.4 IU/L
BUN [5]: 19 mg/dL
CRE [5]: 0.5 mg/dL
Ca [5]: 10.6 mg/dL
Cl [5]: 104.8 meq/L
DBIL [5]: 0.006 mg/dL
GLC [5]: 209.6 mg/dL
IP [5]: 7.6 mg/dL
K [5]: 5.1 meq/L
LDH [5]: 95.8 IU/L
Na [5]: 140.2 meq/L
PL [5]: 140.6 mg/dL
RALB [5]: 3.8 g/dL
TBIL [5]: 0.3 mg/dL
TC [5]: 78.6 mg/dL
TG [5]: 63 mg/dL
TP [5]: 5.8 g/dL
gamma-GTP [5]: 1.4 IU/L
TERMINAL_BW [6]: 228.8 g
TERMINAL_BW [7]: 255.7 g
TERMINAL_BW [8]: 314.6 g
APTT [6]: 16.3 s
Bas [6]: 0%
Eos [6]: 0.6%
Fbg [6]: 236.4 mg/dL
Hb [6]: 13.6 g/dL
Ht [6]: 40.5%
Lym [6]: 81.4%
MCH [6]: 20 pg
MCHC [6]: 33.5%
MCV [6]: 59.7 fL
Mono [6]: 4.6%
Neu [6]: 13.2%
PT [6]: 12.1 s
Plat [6]: 138 x10_4/uL
RBC [6]: 678.2 x10_4/ul
Ret [6]: 4.7%
WBC [6]: 126.4 x10_2/uL
APTT [7]: 16.2 s
Bas [7]: 0%
Eos [7]: 1.2%
Fbg [7]: 212.8 mg/dL
Hb [7]: 13.3 g/dL
Ht [7]: 39.7%
Lym [7]: 73.4%
MCH [7]: 18.9 pg
MCHC [7]: 33.6%
MCV [7]: 56.2 fL
Mono [7]: 5.8%
Neu [7]: 19.8%
PT [7]: 12.3 s
Plat [7]: 134 x10_4/uL
RBC [7]: 707.4 x10_4/ul
Ret [7]: 5.4%
WBC [7]: 130.8 x10_2/uL
APTT [8]: 15.9 s
Bas [8]: 0%
Eos [8]: 0.8%
Fbg [8]: 226.2 mg/dL
Hb [8]: 13 g/dL
Ht [8]: 39%
Lym [8]: 84.2%
MCH [8]: 16.6 pg
MCHC [8]: 33.2%
MCV [8]: 50 fL
Mono [8]: 5.5%
Neu [8]: 9.2%
PT [8]: 12.2 s
Plat [8]: 130.1 x10_4/uL
RBC [8]: 781.8 x10_4/ul
Ret [8]: 3.8%
WBC [8]: 181.2 x10_2/uL
KIDNEY_L [6]: 1.2 g
KIDNEY_R [6]: 1.2 g
KIDNEY_TOTAL [6]: 2.3 g
KIDNEY_L [7]: 1.2 g
KIDNEY_R [7]: 1.2 g
KIDNEY_TOTAL [7]: 2.3 g
KIDNEY_L [8]: 1.4 g
KIDNEY_R [8]: 1.4 g
KIDNEY_TOTAL [8]: 2.8 g
LIVER [6]: 11.1 g
LIVER [7]: 12.1 g
LIVER [8]: 12.6 g
A/G [6]: 1.6
ALP [6]: 757.4 IU/L
ALT [6]: 8.6 IU/L
AST [6]: 46.8 IU/L
BUN [6]: 16.2 mg/dL
CRE [6]: 0.5 mg/dL
Ca [6]: 10.4 mg/dL
Cl [6]: 105 meq/L
DBIL [6]: 0.028 mg/dL
GLC [6]: 212.2 mg/dL
IP [6]: 8 mg/dL
K [6]: 5.1 meq/L
LDH [6]: 77.6 IU/L
Na [6]: 140.6 meq/L
PL [6]: 127.8 mg/dL
RALB [6]: 3.8 g/dL
TBIL [6]: 0.3 mg/dL
TC [6]: 64.4 mg/dL
TG [6]: 62.2 mg/dL
TP [6]: 6.1 g/dL
gamma-GTP [6]: 1.2 IU/L
A/G [7]: 1.7
ALP [7]: 587.6 IU/L
ALT [7]: 8.8 IU/L
AST [7]: 48.4 IU/L
BUN [7]: 20.4 mg/dL
CRE [7]: 0.6 mg/dL
Ca [7]: 10.3 mg/dL
Cl [7]: 106.8 meq/L
DBIL [7]: 0.004 mg/dL
GLC [7]: 210.8 mg/dL
IP [7]: 7.8 mg/dL
K [7]: 5.1 meq/L
LDH [7]: 123.4 IU/L
Na [7]: 139.8 meq/L
PL [7]: 123.2 mg/dL
RALB [7]: 3.7 g/dL
TBIL [7]: 0.3 mg/dL
TC [7]: 60.2 mg/dL
TG [7]: 61.8 mg/dL
TP [7]: 5.9 g/dL
gamma-GTP [7]: 0.2 IU/L
A/G [8]: 1.6
ALP [8]: 533 IU/L
ALT [8]: 6.8 IU/L
AST [8]: 49.8 IU/L
BUN [8]: 19.5 mg/dL
CRE [8]: 0.6 mg/dL
Ca [8]: 9.9 mg/dL
Cl [8]: 106 meq/L
DBIL [8]: 0.0525 mg/dL
GLC [8]: 212.5 mg/dL
IP [8]: 6.7 mg/dL
K [8]: 4.9 meq/L
LDH [8]: 81.2 IU/L
Na [8]: 140.8 meq/L
PL [8]: 108.2 mg/dL
RALB [8]: 3.6 g/dL
TBIL [8]: 0.2 mg/dL
TC [8]: 53.8 mg/dL
TG [8]: 41.8 mg/dL
TP [8]: 5.8 g/dL
gamma-GTP [8]: 1.5 IU/L
